Laboratory results: paper PMC11024163, “MmcA is an electron conduit that facilitates both intracellular and extracellular electron transport in Methanosarcina acetivorans” (Nature Communications, 2024)

Biological target: T1, MmcA (Methanosarcina acetivorans, UniProt Q8TSY5)
T1 construct: gene MA_0658; mature holo-protein of 476 aa (signal peptide removed), C-terminal 3xFLAG and twin-Strep tags kept; homologous expression in M. acetivorans, anti-Flag purified from Triton X-100 solubilised membranes; seven covalent hemes c
T1 sequence (Q8TSY5 25-500): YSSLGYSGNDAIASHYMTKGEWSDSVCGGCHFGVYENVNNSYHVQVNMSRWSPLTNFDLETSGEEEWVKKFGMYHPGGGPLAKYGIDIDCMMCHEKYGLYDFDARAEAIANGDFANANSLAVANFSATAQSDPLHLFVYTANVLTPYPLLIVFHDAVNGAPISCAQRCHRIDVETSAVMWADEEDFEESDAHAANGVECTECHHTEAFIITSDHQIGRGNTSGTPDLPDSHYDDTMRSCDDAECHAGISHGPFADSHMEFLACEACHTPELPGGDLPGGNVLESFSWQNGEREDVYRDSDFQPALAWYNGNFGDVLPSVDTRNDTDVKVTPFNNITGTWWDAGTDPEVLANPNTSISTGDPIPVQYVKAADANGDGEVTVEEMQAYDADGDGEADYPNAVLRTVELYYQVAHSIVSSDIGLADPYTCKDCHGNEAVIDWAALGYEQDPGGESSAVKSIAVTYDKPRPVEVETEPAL
Experiment: UV-vis spectral oxidation of dithionite-reduced MmcA
Assay type: biochemical
Details: 2.5–3.5 µM MmcA, 50 mM Tris-HCl, 150 mM NaCl, 2% glycerol, pH 7.4, room temperature, anaerobic

Structure (SMILES) | UV-vis spectral oxidation of dithionite-reduced MmcA (electron acceptor, soluble methanophenazine analogue, 200 µM) | UV-vis spectral oxidation of dithionite-reduced MmcA (electron acceptor in excess)
Oc1ccc2nc3ccccc3nc2c1 [2HP, 2-hydroxyphenazine] | The addition of 2HP instantaneously oxidized MmcA as observed by a shift in its Soret | 
O=C1c2ccc(S(=O)(=O)O)cc2C(=O)c2ccc(S(=O)(=O)O)cc21 [AQDS, anthraquinone-2,6-disulfonate] |  | All three electron acceptors oxidized MmcA rapidly
